According to patent US20080027095A1, “Use Of 3-Substituted-2-(Diphenylmethy)-1-Azabicyclo[2.2.2]Octanes For Treating Mrg-X1 Receptor Mediated Diseases” (priority 2005, published 2008):
Where no end group is shown, it is not given here.

Columns and labels:
hMRG-X1 receptor [1] = molecular target: T1, hMRG-X1 receptor (Homo sapiens, UniProt Q96LB2); assay: Beta-lactamase (BLA) reporter-gene assay in CHO-hMRG-X1-NFAT/BLA cells; assay type: cell-based; settings: for IC50: antagonism of BAM15-induced BLA response
Experimental: BLA assays in 384-well plates were performed essentially as described previously (11). For miniaturization of the BLA assay into 3456-well format, cells were serum-starved for ˜18 hours in assay medium (11) the day before the assay. On the day of the assay, cells were dissociated with enzyme-free dissociation buffer, re-suspended into assay medium and dispensed into a 3456-well nanoplate (3000 cells in 1.4 μl/well) using the FRD (Aurora Discovery, San Diego, Calif.) (13). Rest of the BLA assay was conducted essentially as described earlier (13). The cellular response was also observed by fluorescence microscopy with UV illumination. The data are plotted as a ratio of the emissions 460 nm/530 nm. Experimental data points are represented as median±standard deviation of 4-115 replicates.

hMRG-X1 receptor [2] = molecular target: T1, hMRG-X1 receptor; assay: Receptor trafficking/internalization assay (InCell, Transfluor) in U2OS-hMRGX1-βarrGFP cells; assay type: cell-based; settings: for IC50: 60 μM BAM15 (EC80), receptor trafficking
Experimental: (§1) U2OS-hMRGX1-βarrGFP stable cells were cultured in MEM supplemented with 10% heat-inactivated FBS, 4 mM L-Glutamine, 10 μg/ml Gentamicin, 10 mM HEPES, 0.4 mg/ml G-418, and 0.4 mg/ml Zeocin. Cells were plated on black/clear plastic bottom 384-well Corning plates at a density of 3000 cells/well in 20 μl growth medium and cultured overnight. DMSO, or sample compounds titrated in 75% DMSO were transferred from the compound source plate into the assay plate (200 nl/well). After 15 minutes incubation at 37° C. and 5% CO2, 5 μl of agonist (varying concentrations of BAM15 or EC80 concentration of 60 μM for compound titrations) was added and cells were incubated at 37° C. for 30 minutes. The fixing/nuclear staining solution was prepared in PBS as a 2× stock containing 4% paraformaldehyde and 2 μM DRAQ5 and 25 μl of this solution was added to the cells and incubated at room temperature in the dark for 30 minutes. The solution was then aspirated and replaced with PBS before confocal microscopy. Confocal microscopy was performed on the IN Cell Analyzer 3000 (GE Healthcare, Piscataway, N.J.).
All experiments with dose-response relationships were analyzed by a nonlinear regression software package from Graphpad (San Diego, Calif.). In the InCell 3000 imager, two excitation lines, 488 nm and 633 nm, were used to simultaneously excite βarrestin-GFP and the DRAQ5 nuclear stain, respectively. Confocal images from the IcCell 3000 were analyzed by the Raven software. Images of 200-300 cells from each well were captured and analyzed with GRN1 (granularity) algorithm using the Raven software of IN Cell Analyzer 3000. Individual cells or nuclei are first identified by thresholding the red channel (DRAQ5). From the nucleus, a rectangular bounding box was dilated out to the edge of the cell with a dilation setting of 15 pixels. […] This granularity algorithm was used to measure the number of fluorescent spots (Ngrains) based on fluorescent intensity and size of the grains and the average value from all the cells in a well were used to obtain the “Ngrain” value for the well. The same GRN1 algorithm was used to measure toxic affects or other false positives. Icyt value was used to measure the average intensity of the green fluorescence inside the bounding box as described above. Low Icyt values may indicate a sign of toxicity (resulting in either cell lyses or cells rounding up) displaying little or no GFP distribution in the cytoplasm and the plasma membrane, while high Icyt values may be due to the presence of fluorescent compound.

hMRG-X1 receptor [3] = molecular target: T1, hMRG-X1 receptor; assay: Whole cell receptor binding assay with 3H-BAM in CHO-hMRG-X1-NFAT-BLA cells; settings: [3H]-BAM15
hMRG-X1 receptor [4] = molecular target: T1, hMRG-X1 receptor; assay: Intracellular Ca2+ (FLIPR) assay in CHO-hMRG-X1-NFAT/Bla cells; assay type: cell-based; settings: inhibition of BAM15-induced i[Ca2+] response
Experimental: Intracellular Ca^2+ measurements were performed essentially as described (14, 15). Modifications include 8000 cells/well of the CHO-hMRG-X1-NFAT/Bla cells in 20 μgrowth medium plated in 384-well plates 24 hours before assay. Cells were loaded with 20 μl of 2X calcium probe and fluorescent quencher. Agonist was prepared as a 4× stock in HBSS buffer and added to the assay plate by the FLIPR384 pipetter (13.3 μl/well). Experimental data points are represented as median±standard deviation of 4 replicates.

hMRG-X1 receptor [5] = molecular target: T1, hMRG-X1 receptor; assay: Whole cell receptor binding assay with 3H-BAM in CHO-hMRG-X1-NFAT-BLA cells; settings: 10 nM 3H-BAM, 4° C.
Experimental: CHO-hMRG-X1-NFAT-BLA cells were plated in a 24-well plate at 60,000 cells/well in 500 μl growth medium and incubated at 37° C. for 24 hours. The cells were washed once with 200 μl assay buffer (HANKS with 0.1% BSA and 20 mM HEPES, pH 7.5, refrigerated at 4° C.) using a vacuum aspirator. 90 μl assay buffer was added to each well followed by an addition of 0.2 μl/well diluted compounds (500X stock in DMSO) and incubated at 4° C. for 5 minutes. […] of ^3H-BAM peptide was added to each well (10 nM final concentration; ˜75,000 dpm) and the assay plate was incubated at 4° C. for 30 minutes with brief gentle shaking every 5 minutes. The assay plate was then washed rapidly with 2X 200 μl assay buffer (approximately 4 to 5 seconds for both washes). All wash steps were performed in a cold room (4° C.). To lyse the cells, 200 μl of 0.2 M NaOH was added to each well and incubate at room temperature for 30 minutes. The cell lysate in each well was transferred to a scintillation vial followed by addition of 3 ml scintillation solution (UltimaGold, PerkinElmer) and counted in a scintillation counter (1 minute per vial).

[6] = system: U2OS-hMRGX1-βarrGFP cells; assay: Toxicity algorithm (Icyt) on the InCell imaging assay; assay type: cell-based; settings: even at 100 μM
Experimental: as §1, with “The solution was then aspirated and replaced with PBS before confocal microscopy. Confocal microscopy was performed on the IN Cell Analyzer 3000 (GE Healthcare, Piscataway, N.J.).” left out
All experiments with dose-response relationships were analyzed by a nonlinear regression software package from Graphpad (San Diego, Calif.). […] Confocal images from the IcCell 3000 were analyzed by the Raven software. Images of 200-300 cells from each well were captured and analyzed with GRN1 (granularity) algorithm using the Raven software of IN Cell Analyzer 3000. […] Icyt value was used to measure the average intensity of the green fluorescence inside the bounding box as described above. […]

T1 sequence (Q96LB2 whole entry): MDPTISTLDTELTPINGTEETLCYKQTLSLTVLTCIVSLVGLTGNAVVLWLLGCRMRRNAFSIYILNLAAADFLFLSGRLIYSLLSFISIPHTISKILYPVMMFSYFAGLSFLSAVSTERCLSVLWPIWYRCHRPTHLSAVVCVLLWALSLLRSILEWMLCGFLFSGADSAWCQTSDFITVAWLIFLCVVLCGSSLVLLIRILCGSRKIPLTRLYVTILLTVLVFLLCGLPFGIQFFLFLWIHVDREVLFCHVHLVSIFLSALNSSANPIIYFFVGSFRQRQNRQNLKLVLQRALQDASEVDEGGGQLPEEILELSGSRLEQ

Molecule	IC50 (hMRG-X1 receptor [1]; IC50 BLA) [nM]	IC50 (hMRG-X1 receptor [4]; IC50 FLIPR) [nM]	IC50 (hMRG-X1 receptor [2]; IC50 InCell) [nM]	IC50 (hMRG-X1 receptor [1]; read-out: IC50 BLA) [nM]	IC50 (hMRG-X1 receptor [4]; read-out: IC50 FLIPR) [nM]	IC50 (hMRG-X1 receptor [2]; read-out: IC50 InCell) [nM]	IC50 (hMRG-X1 receptor [5]; read-out: IC50 Binding) [nM]	other results
VGRPEWWMDYQKRYG [BAM15, reference compound]								EC50 (hMRG-X1 receptor [1]; 1.8 μl assay in 3456-well plates, FIG. 3A, read-out: EC50, BLA assay miniaturized): 20 nM; EC50 (hMRG-X1 receptor [1]; 384-well, across 5 clones, FIG. 2B, read-out: EC50s for BAM15, BLA assay): 40 to 300 nM; EC50 (hMRG-X1 receptor [2]; BAM15-induced, 30 minutes, FIG. 4, read-out: EC50 of pit phenotype (receptor internalization)): ~14000 nM; Kd (hMRG-X1 receptor [3]): 80 nM
O=C(Nc1cccc([N+](=O)[O-])c1)OC1C2CCN(CC2)C1C(c1ccccc1)c1ccccc1 (centres unmarked) [Compound 13]	290	1300	6300					IC50 (hMRG-X1 receptor [5]; IC50 Binding): 1850 nM
Cc1cc(C)cc(C(O)C=C2C3CCN(CC3)C2C(c2ccccc2)c2ccccc2)c1 (centres unmarked) [Compound 9]				200	1500	5200		
O=C(OC1C2CCN(CC2)C1C(c1ccccc1)c1ccccc1)c1ccccc1C(F)(F)F (centres unmarked) [Compound 12]	252	3300	8800					IC50 (hMRG-X1 receptor [5]; IC50 Binding): 2400 nM
C(Cc1ccccc1)=C1C2CCN(CC2)C1C(c1ccccc1)c1ccccc1 (centres unmarked) [Compound 7]				163	220	2200	1430	
O=C(Nc1cccc2ccccc12)OC1C2CCN(CC2)C1C(c1ccccc1)c1ccccc1 (centres unmarked) [Compound 5]	124	904	2200					IC50 (hMRG-X1 receptor [5]; IC50 Binding): 1220 nM
COc1ccc(C(=O)OC2C3CCN(CC3)C2C(c2ccccc2)c2ccccc2)cc1OC (centres unmarked) [Compound 2]	64	157	2800					
FC(F)(F)c1ccccc1CNC1C2CCN(CC2)C1C(c1ccccc1)c1ccccc1 (centres unmarked) [Compound 11]				244	460	5200	1290	
COc1ccccc1NC(=S)NC1C2CCN(CC2)C1C(c1ccccc1)c1ccccc1 (centres unmarked) [Compound 15]				418	9800	13500	2510	
N#Cc1cccc(COC2C3CCN(CC3)C2C(c2ccccc2)c2ccccc2)c1 (centres unmarked) [Compound 10]				209	492	10000		
O=C(Nc1ccccc1Cl)OC1C2CCN(CC2)C1C(c1ccccc1)c1ccccc1 (centres unmarked) [Compound 6]	140	751	3600					IC50 (hMRG-X1 receptor [5]; IC50 Binding): 607 nM
COc1ccccc1C(=O)C=C1C2CCN(CC2)C1C(c1ccccc1)c1ccccc1 (centres unmarked) [Compound 1]								toxicity by toxicity algorithm on the InCell imaging assay [6]: minimal toxicity
COc1ccccc1C(O)C=C1C2CCN(CC2)C1C(c1ccccc1)c1ccccc1 (centres unmarked) [Compound 3]				80	187	550	182	
OC(C=C1C2CCN(CC2)C1C(c1ccccc1)c1ccccc1)c1ccc(F)cc1 (centres unmarked) [Compound 8]				165	334	4800	630	
OC(C=C1C2CCN(CC2)C1C(c1ccccc1)c1ccccc1)c1cccc(C(F)(F)F)c1 (centres unmarked) [Compound 4]				90	209	6780		
N#Cc1ccc(COC2C3CCN(CC3)C2C(c2ccccc2)c2ccccc2)cc1 (centres unmarked) [Compound 16]				556			1850	
O=C(Nc1ccccc1Cl)OC1C2CCN(CC2)C1C(c1ccccc1)c1ccccc1 (centres unmarked) [Compound 14]	375	2700	29000					IC50 (hMRG-X1 receptor [5]; IC50 Binding): 1180 nM
